Experimental data reported in patent US10822317B2, “Methods and compositions for wound healing” (QBiotics Limited, priority 2013, dated 2020).

Tests used:
[1] = tested on: human peripheral blood mononuclear cells (PBMCs); assay: Cytokine production by PBMCs (Cytometric Bead Array); format: cell-based; settings: 24 hr, ± standard deviation
Description: Specific cytokines play critical roles in wound healing processes, and agents that modulate these substances may be useful in treating wounds and/or improving the cosmetic outcomes of healing (e.g. reduced scarring). The effects of Compounds 1, 2, 5 and 42 on regulation of four cytokines (IL-1β, IL-6, IL-8 and TNFα) known to be critical in early stages of the wound healing process were investigated in human peripheral blood mononuclear cells (PBMCs).
PBMCs were isolated by Ficoll-Paque sedimentation of heparinised blood acquired from both a person (Donor 1) and (Donor 2) human donor. All cells were cultured in 10% FCS, RPMI as detailed previously.
PBMCs were seeded at a density of 1.5×10^5 cells per well in 10% FCS, RPMI. Stimulation of these cells with the four compounds was performed at four concentrations (0 ng/mL, 3 ng/mL, 30 ng/mL, 300 ng/mL) in duplicate for 24 h in a humidified incubator at 37° C., 5% CO2. Media samples were taken from each of the required wells and frozen at −80° C. until use.
Cytometric Bead Array (CBA) assays were used to measure the results. CBA assays provide a method for capturing a soluble analyte or set of analytes using antibody coated beads of known sizes and fluorescence. Detection is then performed using another fluorescently labelled secondary antibody to form a sandwich complex. Each media sample was assayed for the presence of soluble […], IL-6, IL-8, IL-10, IL-12p70 and TNFα using a BD (Becton Dickinson) CBA Human Inflammatory Cytokine Detection Kit according to manufacturers' instructions. Mean fluorescence intensity values from each sample were compared against a standard curve to determine cytokine concentrations (pg/mL).

[2] = tested on: chronic, non-healing wounds; assay: Veterinary case studies 1 to 7, non-healing wounds in dogs; format: in vivo, Canis lupus familiaris
Method: Seven dogs (Canis lupus familiaris) and one tree kangaroo (Dendrolagus humholzii) with chronic, non-healing wounds that were unresponsive to current veterinary standards-of-care for these indications were treated with Compound 1 by independent veterinarians. A second tree kangaroo and a spectacled flying fox (Pteropus conspicillatus) with wounds unsuited for initial treatment with current standards-of-care were also treated with Compound 1. All cases were managed as open wounds without the use of dressings or other bandaging during the course of treatment with Compound 1 and the subsequent period of wound resolution. Unless stated in individual case studies, no concomitant medications were used over the course of treatments with Compound 1.
Case notes: • Frail patient with severe osteoarthritis, considered a high anaesthetic risk for any surgical intervention. • Patient had persistent infected cyst on the back proximal to the tail that had not responded to regular draining and injection of the cyst with antibiotics (gentamycin, enrofloxacin, norocillin) over a 5 month period. • Patient presented with the burst cyst and elevated temperature. The cyst was cleaned to remove dead skin and then flushed with saline and chlorhexidene.
The wound area was fully healed by 63 days after treatment. • The wound on leg also responded quickly with eschar present in localised areas. By 14 days the eschar had largely shed and healthy underlying granulation tissue was observed.
Case notes: • Patient presented with a non-healing laceration due to a hunting accident that had been present on the left ear for more than 6 weeks. • Three treatments, each of 0.1 mL of 5 mg/mL gel formulation of Compound 1, were applied to the affected area at 8 day intervals. No concomitant medications were used during the course of treatment of the patient with Compound 1. • By 41 days after the first treatment with Compound 1 the wound had fully closed.
Case notes: • The patient presented with non-healing (infected and inflamed) sore on upper part of left ear and was treated for 10 weeks with standard-of-care protocols involving regular application of (i) a topical dermatological formulation (Neotopic) combining antibacterial (neomycin sulphate), anti-inflammatory (hydrocortisone) and anti-pruritic (lignocaine) agents, and (b) a commercial suspension (Auracol) with anti-inflammatory (prednisolone), antifungal (miconazole nitrate) and antibacterial (polymixin B sulphate) components. Prior to these treatments the patient was on an on-going course of low dose oral corticosteroids (macrolone) for treatment of chronic canine atopic dermatitis syndrome. • After 10 weeks of the standard-of-care protocol there was no sign of wound resolution. • A single treatment of 3 mL of a 5 mg/mL gel formulation of Compound 1 was applied to the affected area and within 15 minutes of application of Compound 1 there was discernable reddening of the treated area. • From 4 days after treatment with Compound 1 the patient recommenced low dose daily corticosteroids (macrolone) for treatment of the severe atopic dermatitis.
Case notes: • The patient presented with two non-healing wounds at the tip and base of the right ear and a non-healing wound on the snout that owner had observed present for more than 4 weeks. Possible origin was infected spider or other insect bites. • Two treatments, each of 0.1 mL of 5 mg/mL gel formulation of Compound 1, were applied to both affected areas on the ears at a 5 day interval.

[3] = Case 1, 76 days following the final treatment
[4] = Case 5, 152 days after the initial treatment
[5] = Case 6, 83 days after treatment

## CC=C(C)C(=O)OC1C(C)C2(O)C(C3OC3(CO)C(O)C3(O)C(=O)C(C)=CC32)C2C(C)(C)C12OC(=O)C(C)CC (centres unmarked) [Compound 1, 12-tigloyl-13-(2-methylbutanoyl)-6,7-epoxy-4,5,9,12,13,20-hexahydroxy-1-tigliaen-3-one]
[1]; Donor 1, 3 ng/mL
  IL-1β level: 1.2 ± 0.2 pg/mL
  IL-6 level: 9.7 ± 1.2 pg/mL
  IL-8 level: 1720 ± 157 pg/mL
  TNFα level: 24.3 ± 1.4 pg/mL
[1]; Donor 1, 30 ng/mL
  IL-1β level: 11.9 ± 0.8 pg/mL
  IL-6 level: 34.2 ± 1.1 pg/mL
  IL-8 level: 16920 ± 1198 pg/mL
  TNFα level: 324.4 ± 0.0 pg/mL
[1]; Donor 1, 300 ng/mL
  IL-1β level: 39 ± 0.2 pg/mL
  IL-6 level: 89.5 ± 13.8 pg/mL
  IL-8 level: 16419 ± 40 pg/mL
  TNFα level: 355.0 ± 4.3 pg/mL
[1]; Donor 2, 3 ng/mL
  IL-1β level: 3.1 ± 0.9 pg/mL
  IL-6 level: 8.3 ± 0.4 pg/mL
  IL-8 level: 1493 ± 2 pg/mL
  TNFα level: 11.2 ± 0.3 pg/mL
[1]; Donor 2, 30 ng/mL
  IL-1β level: 43.9 ± 1.7 pg/mL
  IL-6 level: 12.6 ± 0.9 pg/mL
  IL-8 level: 24078 ± 815 pg/mL
  TNFα level: 209.6 ± 7.5 pg/mL
[1]; Donor 2, 300 ng/mL
  IL-1β level: 121.6 ± 5.6 pg/mL
  IL-6 level: 38.8 ± 9.0 pg/mL
  IL-8 level: 32021 ± 1156 pg/mL
  TNFα level: 592.2 ± 24.7 pg/mL
[2]; Case 1, Bernese Mountain Dog, facial wound, gel 3 mg/mL x5, then 1 mL 0.5 mg/mL injected, 35 days following injection
  wound status: infilled with healthy differentiating granulation tissue
[2]; [3]
  hair regrowth, % of the original wound area: greater than 95%
  wound outcome: healed and was infilled with normal tissue minimal scarring
[2]; Case 2, Boxer, burst infected cyst, 0.5 mL gel 3 mg/mL, 5 days post treatment
  wound area as % of the area of the original wound: less than 30%
[2]; Case 2, 30 days
  hair regrowth over the original wound area: greater than 70%
  wound outcome: resolved with normal tissue
[2]; Case 3, Chow Chow, two bite wounds, 0.4 mL gel 3 mg/mL each, 15 days post treatment
  wound size as % of original size: less than 40%
[2]; Case 3, 46 days following treatment
  wound outcome: completely resolved with normal tissue, no scarring and complete hair regrowth
[2]; Case 4, Boxer, single 0.4 mL gel 5 mg/mL
  time to complete wound closure, facial wound: ≤ 14 days
[2]; Case 4, 63 days after treatment
  hair cover, leg wound: greater than 95%
[2]; Case 4, single 0.4 mL gel 5 mg/mL
  time to fully healed wound area, facial wound: ≤ 63 days
[2]; Case 4, single 0.6 mL gel 5 mg/mL, 63 days after treatment
  wound outcome, leg wound: completely closed
[2]; Case 5, Bull Arab, ear laceration, 3 x 0.1 mL gel 5 mg/mL at 8 day intervals, after first treatment
  time to full wound closure: ≤ 41 days
[2]; [4]
  hair coverage over the original wound site: greater than 80%
  wound outcome: complete wound resolution, minimal scarring
[2]; Case 6, Boxer, ear wound, single 3 mL gel 5 mg/mL
  time to discernable reddening of the treated area: ≤ 15 min
[2]; Case 6, 17 days after treatment
  wound status: no sign of infection or inflammation
[2]; [5]
  hair regrowth, % of the original wound area: more than 90%
  wound outcome: complete wound closure
[2]; Case 6, 139 days after treatment
  scarring: no evidence of scarring
[2]; Case 7, Jack Russell Terrier, 2 x 0.1 mL gel 5 mg/mL, 13 days after the first treatment
  wound status, ear wounds: contracted significantly and had formed eschars
[2]; Case 7, 2 x 0.1 mL gel 5 mg/mL
  time to full wound closure, ear wounds: ≤ 29 days
[2]; Case 7, single 0.1 mL gel 5 mg/mL, 16 days after treatment
  wound outcome, snout wound: fully resolved

## CCC(C)C(=O)OC1C(C)C2(O)C(C3OC3(CO)C(O)C3(O)C(=O)C(C)=CC32)C2C(C)(C)C12OC(=O)C(C)CC (centres unmarked) [Compound 2, 12,13-di-(2-methylbutanoyl)-6,7-epoxy-4,5,9,12,13,20-hexahydroxy-1-tigliaen-3-one]
[1]; Donor 1, 3 ng/mL
  IL-1β level: 1.4 ± 1.2 pg/mL
  IL-6 level: 9.1 ± 0.2 pg/mL
  IL-8 level: 2099 ± 585 pg/mL
  TNFα level: 31.15 ± 6.9 pg/mL
[1]; Donor 1, 30 ng/mL
  IL-1β level: 1.21 ± 0.4 pg/mL
  IL-6 level: 38 ± 3.9 pg/mL
  IL-8 level: 18229 ± 2592 pg/mL
  TNFα level: 314.07 ± 37.9 pg/mL
[1]; Donor 1, 300 ng/mL
  IL-1β level: 37.7 ± 4.6 pg/mL
  IL-6 level: 84.1 ± 3.6 pg/mL
  IL-8 level: 16634 ± 625 pg/mL
  TNFα level: 330.0 ± 28.7 pg/mL
[1]; Donor 2, 3 ng/mL
  IL-1β level: 6.7 ± 1.5 pg/mL
  IL-6 level: 14.9 ± 1.1 pg/mL
  IL-8 level: 2608 ± 309 pg/mL
  TNFα level: 27.3 ± 8.3 pg/mL
[1]; Donor 2, 30 ng/mL
  IL-1β level: 52.6 ± 5.0 pg/mL
  IL-6 level: 14.5 ± 3.3 pg/mL
  IL-8 level: 26401 ± 271 pg/mL
  TNFα level: 211.5 ± 12.4 pg/mL
[1]; Donor 2, 300 ng/mL
  IL-1β level: 123.9 ± 1.0 pg/mL
  IL-6 level: 41.4 ± 2.3 pg/mL
  IL-8 level: 34117 ± 630 pg/mL
  TNFα level: 618.1 ± 63.7 pg/mL
